# Laboratory results reported in patent US20250269018A1, “COMBINED CANCER THERAPY WITH AN EPITHELIAL CELL ADHESION MOLECULE (EPCAM) INHIBITOR AND A HEPATOCYTE GROWTH FACTOR RECEPTOR (HGFR) INHIBITOR” (ACADEMIA SINICA, priority 2021, published 2025).
# Columns and labels:
# HCT116 or HT29 = test: Metastatic and orthotopic animal models of colon cancer, overall statements
# Method: Colon cancer HCT116 or HT29 (5×10^6 cells/mouse) in PBS were injected into 4-6-week-old female NOD/SCID mice through the tail vein. Mice were then randomly assigned to different treatment groups by body weight. After 3 days, antibodies were administered through tail vein injection twice a week for four consecutive weeks. Crizotinib was administered daily by oral gavage for 5 days per week (treatment for four weeks). For the therapeutic study, tumor-bearing mice were treated with isotype control IgG1 (15 mg/kg), crizotinib (20 mg/kg), EpAb2-6 (15 mg/kg), or crizotinib (20 mg/kg) combined with EpAb2-6 (15 mg/kg). Mouse survival rate were measured.
# Orthotopic tumor models were created as previously reported (Chen et al., 2020). Briefly, NSCID mice were used for orthotopic implantation of HCT116 cells previously infected with Lenti-luc virus (lentivirus containing luciferase gene). The mice were anesthetized by i.p. injection ofAvertin, 2,2,2-Tribromo-ethanol (Sigma-Aldrich) at a dose of 250 mg/kg. Tumor development was monitored by bioluminescence imaging. For the therapeutic study, tumor-bearing mice were treated with isotype control IgG1 (15 mg/kg), crizotinib (20 mg/kg), EpAb2-6 (15 mg/kg), or crizotinib (20 mg/kg) combined with EpAb2-6 (15 mg/kg). Tumor progression was monitored by quantification of bioluminescence. Mouse survival was also monitored.
# HT29 cells [1] = test: Transwell invasion assay with matrigel, HT29; assay type: cell-based, human; conditions: 10 μg/ml EpAb2-6 and 10 μM crizotinib, 24 h, vs control IgG, FIG. 7G
# Method: Cell migration and invasion were assayed with 8-μm pore size Transwell migration chambers (Millicell) without or with 10% matrigel. Cells (1×10^5) were added to the upper chamber in 500 μl serum-free DMEM. Then, 700 μl DMEM containing 10% FBS was added to the lower chamber as a chemoattractant. Migration and invasion were allowed to proceed for 16 h at 37° C. in a standard cell culture incubator. Then, cells were removed from the upper surface of the membranes with cotton swabs, and the cells that had migrated to the lower surface were stained with 0.05% (w/v) crystal violet in 4% paraformaldehyde (in 1×PBS) for 15 min and washed with water. Membranes were dried for 15-20 min before at least four random fields on the membrane examined at high power were counted for each experimental condition.
# HT29 cells [2] = test: Apoptosis assay, annexin V-FITC/PI double labeling, HT29; assay type: cell-based, human; conditions: 10 μg/ml EpAb2-6 and 4 μM crizotinib 24 h, FIG. 7F
# Method: (§1) FIGS. 7A to 7G. EpAb2-6 binds EpEX and induces apoptosis by F(ab′)2 and inhibits regulated intramembrane proteolysis (RIP) activation and HGFR signaling. (FIG. 7A) Binding affinity of IgG EpAb2-6 (mouse) and F(ab′)2 to EpEX-His (1 μg/ml) coated overnight was checked using ELISA (OD450). (FIG. 7B) HCT116 cells were treated with 100 μg/ml control IgG, Fc, or F(ab′)2 of EpAb2-6 for 24 h. The apoptotic and necrotic cells were quantified by fluorescein annexin V-FITC/PI double labeling. (FIG. 7C) HCT116 and HT29 cells were treated with 10 μg/ml control IgG, MT201, humanized EpAb2-6 (hEpAb2-6) or mouse hybridoma EbAb2-6 (mEpAb2-6) for 24 h. The apoptotic and necrotic cells were quantified by fluorescein annexin V-FITC/PI double labeling. (FIG. 7D) HCT116 cells were treated with 10 μg/ml control IgG, MT201, hEpAb2-6 or mEpAb2-6 for 16 h, followed by treatment with EpEX-His (50 nM) for 15 min. Levels of phosphorylated HGFR, AKT, and ERK, and (FIG. 7E) RIP proteins ADAM17 and presenilin 2 were examined by Western blotting. Anti-EpCAM antibody and crizotinib coordinately induces apoptosis in colon cancer cells. (FIG. 7F) HCT116 and HT29 cells were treated with 10 μg/ml NMIgG or EpAb2-6 and 4 μM HGFR inhibitor crizotinib for 24 h. The apoptotic and necrotic cells were quantified by fluorescein annexin V-FITC/PI double labeling. (FIG. 7G) HCT116 and HT29 cells were treated with 10 μg/ml NMIgG or EpAb2-6 and 10 μM HGFR inhibitor crizotinib. Cell invasion was assessed by a Transwell assay with matrigel after 24 h.
# (§2) Cells were seeded and treated with 10 μg/ml mAb or inhibitor for 6 h; an unrelated mouse myeloma immunoglobulin used at appropriate dilution served as the IgG2a (Invitrogen #02-6200) isotype control. Apoptotic cells were detected using Annexin V-FITC and PI, and were analyzed using a flow cytometer (BD Immmunocytometry Systems). Early apoptosis was measured with the Annexin V-FITC Apoptosis Detection kit II (BD Pharmingen). Late apoptotic nuclei were detected with propidium iodide (PI) staining.
# HCT116 cells [3] = test: Transwell migration/invasion and wound healing assay, HCT116; assay type: cell-based, human; conditions: HCT116; 10 μg/ml EpAb2-6 and 10 μM crizotinib; 24 h; vs control IgG; FIG. 7G
# Method: FIGS. 3A to 3H. EpEX induces the activation of ERK and FAK-AKT signaling pathway. Wild type (WT) or EpCAM knockout (KO) HCT116 cells after EpEX-His treatment. (FIG. 3A) The levels of phosphorylated HGFR, AKT, FAK, GSK3β, ERK, ADAM17, and presenilin 2 were assayed by Western blotting. (FIG. 3B) Colony formation was examined by crystal violet staining. (FIG. 3C) HCT116 cells were treated with TAPI (ADAM17 inhibitor) or DAPT (γ-secretase inhibitor) for 24 hours, and the phosphorylation of HGFR, AKT, and ERK was analyzed by Western blotting, and EpEX protein level in culture medium was examined by immunoprecipitation and Western blotting. (FIG. 3D) HCT116 and HT29 cells were starved for 16 h, then treated with EpEX-His (50 nM) and HGF (0.5 nM) for 15 min. The levels of phosphorylated HGFR, AKT, and ERK were examined by Western blotting. (FIG. 3E) HCT116 cells were starved for 16 h, then treated with 50 nM EpEX-His for 15 min. HGFR inhibitor SU11274 (SU, 10 μM), AKT inhibitor LY294002 (LY, 25 μM), ERK inhibitor U0126 (U0, 20 μM), or FAK inhibitor PF-562271 (PF, 10 μM) were applied 1 h before EpEX treatment. Phosphorylation of AKT, ERK, and FAK was examined by Western blotting. (FIG. 3F) HCT116 cells were starved for 16 h, then treated with 50 nM EpEX, and SU (10 μM), LY (25 μM), U0 (20 μM) or PF (10 μM). Colony formation was examined by crystal violet staining after treatment for 7 days. The relative colony densities are shown. Migration ability was examined by the (FIG. 3G) wound healing assay at the indicated times. (FIG. 3H) The numbers of migration cell was assessed by a Transwell after treatment for 24 h.
# FIGS. 4A to 4L. EpEX induces EMT and invasion by stabilizing β-catenin and Snail through decreasing GSK3β activity. (FIG. 4A) The protein expression of EMT markers and regulators was detected by Western blotting in Wild-type (WT) or EpCAM knockout (KO) HCT116 cells after EpEX treatment. (FIG. 4B) Cell invasion was examined by Transwell chamber assay with matrigel. (FIG. 4C) WT or KO HCT116 and HT29 cells were starved for 16 h, then treated with 0.5 nM of HGF with 2% FBS for 24 h. EMT-related protein expression (E-cadherin, vimentin, and Snail) was examined by Western blotting. (FIG. 4D) WT or KO HCT116 and HT29 cells were treated with HGF (0.5 nM) for 24 h. Invasion by HCT116 and HT29 cells was examined by Transwell chamber assay with matrigel. (FIG. 4E) HCT116 and HT29 cells were starved for 16 h, then treated with 0.5 nM of HGF with 2% FBS for 24 h. EMT-related protein expression (E-cadherin, Vimentin, and Snail) was examined by Western blotting. (FIG. 4F) HCT116 and HT29 cells were starved for 16 h, then treated with 0.5 nM of HGF with 2% FBS for 24 h. Cell invasion was assessed by a Transwell assay with matrigel. (FIG. 4G) HCT116 cells after shLuc and shHGFR treatment were treated with 50 nM of EpEX-His. HCT116 cells after shLuc and shHGFR treatment were treated with 50 nM of EpEX-His with 2% FBS for 24 h. EMT-related protein expression (E-cadherin, Vimentin, and Snail) was examined by Western blotting. (FIG. 4H) Cell invasion was examined by Transwell chamber assay with matrigel. (FIG. 4I) Starved HCT116 cells were treated SU (10 μM) for 1 h, followed by treatment with EpEX-His (50 nM) for 24 h. Phosphorylated GSK3β, active-β-catenin, and Snail were detected by Western blotting. (FIG. 4J) HCT116 cells were starved for 16 h, then treated with 50 nM EpEX-His for 24 min. AKT inhibitor LY294002 (25 μM), ERK inhibitor U0126 (20 μM), or PF-562271 (10 μM) were applied 1 h before EpEX treatment. Protein expression of phosphorylated GSK3β and Snail was examined by Western blotting. (FIG. 4K) HCT116 cells were starved for 16 h, then treated with 50 nM EpEX, and SU (10 μM), LY (25 μM), UO (20 μM) or PF (10 μM). Cell invasion was examined by Transwell chamber assay with matrigel. (FIG. 4L) Protein expression was analyzed by Western blotting in EpEX-His (50 nM) treated HCT116 cells after treatment with or without 2 μM GSK3β inhibitor (BIO) for 24 h. […]
# HCT116 cells [4] = test: Apoptosis assay, annexin V-FITC/PI double labeling, HCT116; assay type: cell-based, human
# Method: as §1, §2
structure (smiles),measurement,setting,value
"C[C@@H](Oc1cc(-c2cnn(C3CCNCC3)c2)cnc1N)c1c(Cl)ccc(F)c1Cl [crizotinib, 3-[(1R)-1-(2,6-dichloro-3-fluorophenyl)ethoxy]-5-(1-piperidin-4-ylpyrazol-4-yl)pyridin-2-amine]",survival,HCT116 or HT29,poor survival
same,tumor progression,HCT116 or HT29,developed significant tumors
same,effect of crizotinib on the inhibitory effect of EpAb2-6 on invasion,HT29 cells [1],enhanced the inhibitory effect of EpAb2-6 on invasion
same,effect of crizotinib on the apoptotic effects of EpAb2-6,HT29 cells [2],enhance the apoptotic effects of EpAb2-6
same,effect of crizotinib on the inhibitory effect of EpAb2-6 on invasion,HCT116 cells [3],enhanced the inhibitory effect of EpAb2-6 on invasion
same,effect of crizotinib on the apoptotic effects of EpAb2-6,"HCT116 cells [4]; 10 μg/ml EpAb2-6 and 4 μM crizotinib 24 h, FIG. 7F",enhance the apoptotic effects of EpAb2-6
same,sensitization of HCT116 cells to antibody-induced apoptosis after crizotinib treatment,HCT116 cells [4]; discussion statement,sensitized to humanized-EpAb2-6- and EpAb2-6-induced apoptosis
